Laboratory results reported in patent US20250268909A1, “Combination Therapy” (US Oncology Corporate, Inc., priority 2022, published 2025).
“And” between values parts separate entries of the source, which are not always exact repeats. Equal entries are not always repeated.

What was measured:
[1] = phase II trial, adverse events (safety population, CTCAE v4.03); assay type: in vivo, human
Description: Safety was assessed throughout the study. Adverse events were graded and reported according to the National Cancer Institute Common Terminology Criteria for Adverse Events (CTCAE version 4.03).
Incidence and grades of AEs for all patients were analyzed using the safety population which included all patients (eligible and ineligible) who received at least 1 dose of study drug. Toxic effects were reported and tabulated by numbers and frequencies for all related AEs. SAS statistical software version 9.4 (SAS Institute) was used for all data analysis. Data were analyzed from March through May 2019.

[2] = system: ER-positive, HER2-negative metastatic or locally recurrent breast cancer; test: randomized phase II trial, ER+/HER2− cohort, efficacy; assay type: in vivo, human
Source text: Other information about this phase II clinical trial is included in O'Shaughnessy et al., JAMA Network Open. 2021, 4(4):e214103, the entire contents of which are incorporated herein by reference.
Eligible patients were postmenopausal women aged 18 years or older with metastatic or unresectable locally recurrent breast cancer that was histologically confirmed as ER+/HER2− invasive breast cancer (any progesterone receptor status), with Ki67 greater than 15% in primary or metastatic tissue, or grade 3 TNBC, to enrich for more highly proliferative cancers that may be more dependent on AURKA. HER2− negative was defined as immunohistochemistry (IHC) status of 0, 1+, or 2+(if IHC was 2+, a negative FISH test was required with a ratio <2.0 and an average HER2 copy number <4.0 signals/cell). ER-negative and progesterone receptor (PR)-negative status was defined as ER and PR less than 1% nuclei positive by IHC. […] An Eastern Cooperative Group (ECOG) performance status of 0 or 1 and adequate hematologic, cardiac, renal, and liver function were required. Eligible patients were required to have measurable disease by Response Evaluation Criteria in Solid Tumors (RECIST v 1.1) criteria, or lytic or mixed blastic/lytic bone-only disease. Patients with untreated or progressing brain metastases, or those who required corticosteroids, were not eligible.
Administration of 5 μg/kg filgrastim was allowed for treatment-limiting neutropenia, and loperamide was used to treat diarrhea but was not allowed prophylactically in cycle 1.
Computed tomography (CT) of chest, abdomen, and pelvis was performed at screening. Chest and abdominal CT imaging were then performed every 8 weeks after initiation of treatment for the first 32 weeks of treatment and every 12 weeks thereafter for the duration of the treatment period, and at End of Treatment (EoT). Pelvic CT imaging was obtained at subsequent tumor assessments only if pelvic metastases were identified at screening. Bone scans were obtained on all patients at screening and then every 12 weeks in patients with bone metastases on their baseline bone scan.
Patients were stratified as ER-positive, HER2-negative cohort and TN cohort based on results of ER, progesterone receptor, and HER2 measurements on their metastatic tissue, or, if not available, on their primary breast cancer tissue.
Patients' baseline demographic and disease characteristics were summarized for the intent-to-treat population, which included all patients registered on study and were described by means with SDs and medians with ranges for continuous variables and by numbers with percentages for categorical variables. PFS was defined as the time from date of registration in the study to the date of first progression of disease or the date of death. Patients whose disease had not progressed were censored at the last contact date. OS was measured from the date of registration to the date of death. PFS and OS were estimated using Kaplan-Meier methods with 95% CIs in the intent-to-treat population and compared by log-rank tests.
The protocol-defined evaluable population included all eligible patients who received at least 1 dose of study drug. CBR and ORR were examined using univariate and multivariate approaches with Fisher exact tests and the logistic regression models. The 95% CIs were estimated for CBR and ORR assuming binomial distribution. A χ^2 test was used to estimate the differences between CBRs and ORRs in the two arms.

[3] = treatment-related, ER+/HER2− and TN cohorts
[4] = ER+/HER2− cohort, evaluable patients (P+A n=58, P n=62)

With `CC(=O)O[C@H]1C(=O)[C@@]2(C)[C@H]([C@H](OC(=O)c3ccccc3)[C@]3(O)C[C@H](OC(=O)[C@H](O)[C@@H](NC(=O)c4ccccc4)c4ccccc4)C(C)=C1C3(C)C)[C@]1(OC(C)=O)CO[C@@H]1C[C@@H]2O` [Paclitaxel, (2α,4α,5β,7β,10β,13α)-4,10-Bis(acetyloxy)-13-{[(2R,3S)-3-(benzoylamino)-2-hydroxy-3-phenylpropanoyl]oxy}-1,7-dihydroxy-9-oxo-5,20-epoxytax-11-en-2-yl benzoate] the “grade 3 or 4 anemia, patients” value ([1]; all patients combined) was 1.2%, the “grade 3 or 4 diarrhea, patients” value ([1]; all patients combined) was 0% and the “grade 3 or 4 neutropenia, patients” value ([1]; all patients combined) was 16.4%. The “grade 3 or 4 stomatitis or oral mucositis, patients” value ([1]; all patients combined) was 0%, the “grade 3 or 4 neuropathy, patients” value ([1]; in vivo) was 11.40% and the “patients who received standard-dose (5 μg/kg) filgrastim” value ([1]; in vivo) was 15.70%. For the same compound, the “Anemia Grade1” value [1, 3] was 5 (5.9) n (%), the “Anemia Grade2” value [1, 3] was 5 (5.9) n (%) and the “Anemia Grade3” value [1, 3] was 1 (1.2) n (%). The “Anemia Grade4” value [1, 3] was 0 n (%), the “Anemia Total” value [1, 3] was 11 (12.9) n (%) and the “Diarrhea Grade1” value [1, 3] was 9 (10.6) n (%). For the same compound, the “Diarrhea Grade2” value [1, 3] was 2 (2.4) n (%), the “Diarrhea Grade3” value [1, 3] was 0 n (%) and the “Diarrhea Grade4” value [1, 3] was 0 n (%). The “Diarrhea Total” value [1, 3] was 11 (12.9) n (%), the “Dizziness Grade1” value [1, 3] was 2 (2.4) n (%) and the “Dizziness Grade2” value [1, 3] was 0 n (%). For the same compound, the “Dizziness Grade3” value [1, 3] was 0 n (%), the “Dizziness Grade4” value [1, 3] was 0 n (%) and the “Dizziness Total” value [1, 3] was 2 (2.4) n (%). The “Fatigue Grade1” value [1, 3] was 26 (30.6) n (%), the “Fatigue Grade2” value [1, 3] was 6 (7.1) n (%) and the “Fatigue Grade3” value [1, 3] was 2 (2.4) n (%). The “Fatigue Grade4” value [1, 3] was 0 n (%), the “Fatigue Total” value [1, 3] was 34 (40.0) n (%) and the “Febrile neutropenia Grade1” value [1, 3] was 0 n (%). The “Febrile neutropenia Grade2” value [1, 3] was 0 n (%), the “Febrile neutropenia Grade3” value [1, 3] was 0 n (%) and the “Febrile neutropenia Grade4” value [1, 3] was 0 n (%). For the same compound, the “Febrile neutropenia Total” value [1, 3] was 0 n (%), the “Headache Grade1” value [1, 3] was 4 (4.7) n (%) and the “Headache Grade2” value [1, 3] was 1 (1.2) n (%). The “Headache Grade3” value [1, 3] was 0 n (%), the “Headache Grade4” value [1, 3] was 0 n (%) and the “Headache Total” value [1, 3] was 5 (5.9) n (%). The “Leukopenia Grade1” value [1, 3] was 2 (2.4) n (%), the “Leukopenia Grade2” value [1, 3] was 1 (1.2) n (%) and the “Leukopenia Grade3” value [1, 3] was 2 (2.4) n (%). For the same compound, the “Leukopenia Grade4” value [1, 3] was 0 n (%), the “Leukopenia Total” value [1, 3] was 5 (5.9) n (%) and the “Mucositis oral Grade1” value [1, 3] was 4 (4.7) n (%). The “Mucositis oral Grade2” value [1, 3] was 0 n (%), the “Mucositis oral Grade3” value [1, 3] was 0 n (%) and the “Mucositis oral Grade4” value [1, 3] was 0 n (%). For the same compound, the “Mucositis oral Total” value [1, 3] was 4 (4.7) n (%), the “Nausea Grade1” value [1, 3] was 19 (22.4) n (%) and the “Nausea Grade2” value [1, 3] was 4 (4.7) n (%). The “Nausea Grade3” value [1, 3] was 1 (1.2) n (%), the “Nausea Grade4” value [1, 3] was 0 n (%) and the “Nausea Total” value [1, 3] was 24 (28.2) n (%). For the same compound, the “Neuropathy Grade1” value [1, 3] was 9 (12.9) n (%), the “Neuropathy Grade2” value [1, 3] was 8 (11.4) n (%) and the “Neuropathy Grade3” value [1, 3] was 8 (11.4) n (%). The “Neuropathy Grade4” value [1, 3] was 0 n (%), the “Neuropathy Total” value [1, 3] was 25 (35.7) n (%) and the “Neutropenia Grade1” value [1, 3] was 1 (1.2) n (%). The “Neutropenia Grade2” value [1, 3] was 3 (3.5) n (%), the “Neutropenia Grade3” value [1, 3] was 11 (12.9) n (%) and the “Neutropenia Grade4” value [1, 3] was 3 (3.5) n (%). For the same compound, the “Neutropenia Total” value [1, 3] was 18 (21.2) n (%), the “Stomatitis Grade1” value [1, 3] was 7 (8.2) n (%) and the “Stomatitis Grade2” value [1, 3] was 0 n (%). The “Stomatitis Grade3” value [1, 3] was 0 n (%), the “Stomatitis Grade4” value [1, 3] was 0 n (%) and the “Stomatitis Total” value [1, 3] was 7 (8.2) n (%). For the same compound, the “Thrombocytopenia Grade1” value [1, 3] was 0 n (%), the “Thrombocytopenia Grade2” value [1, 3] was 0 n (%) and the “Thrombocytopenia Grade3” value [1, 3] was 0 n (%). For the same compound, the “Thrombocytopenia Grade4” value [1, 3] was 0 n (%), the “Thrombocytopenia Total” value [1, 3] was 0 n (%) and the “median (IQR) PFS in patients previously treated with palbociclib” value ([2]; 30 patients pretreated with palbociclib for MBC (16 P, 14 P+A), listed as paclitaxel alone) was 5.6 (3.0-10.6) months and 5.6 months. The “CBR in patients pretreated with palbociclib” value ([2]; ER+/HER2− cohort) was 37.5%, the “Best Overall Response: CR” value [2, 4] was 0% and the “Best Overall Response: PD” value [2, 4] was 8 (12.9) %. For the same compound, the “Best Overall Response: SD” value [2, 4] was 33 (53.2) %, the “CBR (CR + PR + SD ≥ 6 months)” value ([2]; ER+/HER2− cohort, evaluable patients (P+A n=58, P n=62), listed as P) was 35 (56.5) % and the “CBR (CR + PR + SD ≥ 6 months)” value ([2]; ER+/HER2− cohort, evaluable patients (P+A n=58, P n=62), listed as paclitaxel alone) was 56.5%. The “estimated PFS at 12 months” value ([2]; ER-positive, HER2-negative MBC) was 15.4%, the “median (IQR) PFS” value ([2]; ER-positive, HER2-negative MBC, intent-to-treat, listed as paclitaxel alone) was 7.1 (3.8-10.6) months and 7.1 months and the “median (IQR) OS” value ([2]; median follow-up 22 months) was 25.1 (11.0-31.4) months.
